These results are taken from US20240201204A1, “Biomarker and Druggable Target of Neurodegeneration” (University Hospitals Cleveland Medical Center, priority 2020, published 2024).

The subject of one assay is IL-1β. Briefly: IL-1β expression in cerebral cortex after TBI (qPCR). Format: in vivo, mouse. To be noted: 25 mg/kg salsalate. On the procedure:
(§1) Drug preparation and administration: CGP3466B (Sigma-Aldrich, SML1941) was dissolved in DMSO and then diluted in sterile saline. The final working stock was 0.0014 mg/ml for administering the 0.014 mg/kg dose. Intraperitoneal administration of CGP3466B was initiated 15 min or 24 h after injury, and tissues were harvested 6 h (for SNO-GAPDH, SNO-SIRT1 measurement) or 2 weeks (for ac-tau measurement) later, respectively. Salsalate (AdipoGen, AG-CR1-3574) was dissolved in DMSO and then diluted in sterile PBS. The final working stocks were as follows: 2.5 mg/ml (25 mg/kg dose), 1 mg/ml (10 mg/kg dose), 0.5 mg/ml (5 mg/kg dose). Daily intraperitoneal administration of salsalate was initiated 24 hr after injury and continued throughout behavioral testing. P7C3-A20 and FK866 (Sigma-Aldrich, F8557) were first dissolved in 1 vol of DMSO, followed by addition of 4 vol of Kolliphor and vigorously vortexing. The solution was then diluted with 30 vol of filtered 5% dextrose (pH 7.0). EX527 (Selleckchem, S1541) was dissolved in 1% DMSO+30% polyethylene glycol+1% Tween 80. Daily intraperitoneal administration of P7C3-A20 was initiated 24 hr after poly-traumatic brain injury. EX527 (10 mg/kg) was administer once a day and FK866 was treated twice per day, with the first injection given at the same time as P7C3-A20 (20 mg/kg) and the second injection given 6 h later (LoCoco et al., 2017 eLife). […]

For another assay, the system named is C57BL/6J mice. Briefly: Foot slip test of motor function after TBI. It counts as in vivo, mouse. To be noted: low-dose salsalate daily IP from 24 h after TBI, vs. TBI+Vehicle. On the procedure: as §1, with “injury.” for “injury. EX527 (10 mg/kg) was administer once a day and FK866 was treated twice per day, with the first injection given at the same time as P7C3-A20 (20 mg/kg) and the second injection given 6 h later (LoCoco et al., 2017 eLife).”
Foot slip test of motor function: Mice were trained to cross an 80 cm-long beam over two days and then tested on day 16. Video of the mice was recorded and analyzed by observers blind to treatment group.

The test system of the next assay is Alzheimer's disease. Briefly: Pharmacoepidemiologic cohort analysis (MarketScan Medicare Supplemental database), incidence of AD. Format: in vivo, human. The text has this: Because ac-tau has been generally reported in the brains of subjects with AD, we evaluated the relationship between salsalate or diflunisal use and incidence of clinically-diagnosed TBI or AD by analyzing 7.23 million U.S. commercially-insured individuals (MarketScan Medicare Supplemental database). We conducted two cohort analyses to evaluate the predicted association, based on individual level of longitudinal patient data and pharmacoepidemiologic methods, as previously established (Cheng et al., 2018). Thus, our two cohorts included: (1) salsalate vs. a matched aspirin population and (2) diflunisal vs. a matched aspirin population (Table 2). For each comparison, we estimated the un-stratified Kaplan-Meier curves and conducted propensity score (PS) stratified (n strata=10) log-rank tests and a Cox regression model after adjusting age, race, sex, and disease comorbidities (including diabetes, hypertension, and coronary artery disease) using a propensity score-matching method (Methods).
Study cohorts. The IBM® MarketScan® Medicare Supplemental Database is one of the first in the U.S. to profile the healthcare experience of retirees with Medicare supplemental insurance paid by employers. The MarketScan Medicare Supplemental Database provides detailed cost, use and outcomes data for healthcare services performed in both inpatient and outpatient settings. For most of the population, the medical claims are linked to outpatient prescription drug claims and person-level enrollment data through the use of unique patient or enrollee identifiers. […] This feature makes the database a robust tool for pharmacoeconomic and outcomes research and helps provide insight into the drug use and spending patterns of older Americans. In this study, the pharmacoepidemiology study utilized the MarketScan Medicare Claims database from 2012 to 2017. The dataset included individual-level diagnosis codes, procedure codes and pharmacy claim data for 7.23 million patients. Pharmacy prescriptions of salsalate, diflunisal, and aspirin were identified by using RxNorm and National Drug Code (NDC).
Outcome measurement. For a subject, a drug episode is defined as from drug initiation to drug discontinuation. Specifically, drug initiation is defined as the first day of drug supply (i.e. 1st prescription date). Drug discontinuation is defined as the last day of drug supply (i.e. last prescription date+days of supply) and without drug supply for the next 60 days. In another word, gaps of less than 60-day of drug supply were allowed within a drug episode. The drug cohort included the first drug episode for each subject. For the final cohorts, demographic variables including age, race, sex and geographical location were collected. […]

The next assay has as its system tau. Kind of assay: Tau phosphorylation at S262 after TBI (western blot). Format: in vivo, mouse. To be noted: salsalate treatment after TBI, vs. Sham-Injury. On the procedure:
as §1, with “7.0).” for “7.0). EX527 (Selleckchem, S1541) was dissolved in 1% DMSO+30% polyethylene glycol+1% Tween 80. Daily intraperitoneal administration of P7C3-A20 was initiated 24 hr after poly-traumatic brain injury. EX527 (10 mg/kg) was administer once a day and FK866 was treated twice per day, with the first injection given at the same time as P7C3-A20 (20 mg/kg) and the second injection given 6 h later (LoCoco et al., 2017 eLife).”
Western blotting: Western blotting was performed as described previously (Min et al., 2010), with the 9AB antibody against acetylated-tau generated in the Gan laboratory. […] Lysates were centrifuged at 170,000 g at 4° C. for 15 min and at 18,000 g at 4° C. for 10 min, after which protein concentrations of supernatants were measured by bicinchoninic acid assay (Thermo Scientific, A53225). […]

A further assay relates to p300/CBP. To be noted: literature (Shirakawa et al., 2016); cited from earlier work.

Regarding `O=C(Oc1ccccc1C(=O)O)c1ccccc1O` [salsalate], the “TBI-induced increase of IL-1β in cerebral cortex” value with IL-1β is “this increase is not attenuated”. Also, in the assay with C57BL/6J mice, the “post-TBI motor impairment (foot slip assay)” value is “protects mice from post-TBI impairments”. Moreover, the “incidence of AD, subgroup analysis” value in the assay on Alzheimer's disease (excluding patients with type 2 diabetes, hypertension, or coronary artery disease, vs. aspirin) was “associated with decreased incidence of AD”. Moreover, the “hazard ratio [HR], AD” value in the assay on Alzheimer's disease (vs. PS-matched aspirin cohort, Cox regression model, 6 years of follow-up) is listed as 0.57. For the same molecule, the “phosphorylation of tau at S262 in hippocampus” value with tau is “remains significantly decreased in hippocampus”. For the same molecule, in the assay with p300/CBP, the “inhibition of p300/CBP” value is “known inhibitor of rodent and human p300/CBP”.
